Assay results reported in patent publication US6403831B1, “Substituted benzylidene indenyl formamides, acetamides and propionamides” (Cell Pathways, Inc., priority 1996, dated 2002).

How the values were obtained:
[1] = system: human colon carcinoma cell line, SW-480; assay: Growth inhibition, Sulforhodamine B (SRB) protein binding assay; format: cell-based; conditions: SW-480 cell line, six days continuous exposure
Protocol: These compounds were assayed for their growth inhibitory activity on the human colon carcinoma cell line, SW-480 obtained from ATCC (Rockville, Md.), to ascertain the degree of growth inhibition. Growth inhibition of this cell line is indicative of a benefit on precancerous lesions and neoplasms. The cell line and growth assay employed for these experiments are well characterized, and are used to evaluate the anti-neoplastic properties of NSAIDs. The assay is used by the United States National Cancer Institute in its screening program for new anti-cancer drugs.
Drug stock solutions were made in 100% DMSO then diluted with RPMI media for cell culture testing. All drug solutions were prepared fresh on the day of testing. The cultured cells were obtained at passage #99 and grown in RPMI media supplemented with 5% fetal calf serum, and 2 mM glutamine, 100 U/ml penicillin, 100 U/ml streptomycin, and 0.25 μg/ml amphotericin. The cultures were maintained in a humidified atmosphere of 95% air and 5% CO2 at 37° C. The cultures were passaged at preconfluent densities using a solution of 0.05% trypsin and 0.53 mM EDTA. Cells were plated at 1000 cells/well for 96 well flat-bottom microtiter plates.
Tumor cell growth inhibition was assessed using the Sulforhodamine B (SRB) protein binding assay. In this assay, tumor cells were plated in 96-well plates and treated with drug-containing media for six days (continuous exposure). For each plate, 6 wells were designated as no treatment controls, six wells as vehicle (0.1% DMSO) controls, and the remaining wells for drug dilutions with three wells per drug concentration. At the end of the exposure period, the cells were fixed and stained with sulforhodamine B, a protein binding dye. The dye was then solubilized, and the optical density of the resulting solution was determined on a 96-well plate reader. The mean dye intensity of the treated wells was then divided by the mean dye intensity in the control wells (6 wells of each) to determine the effect of the drug on the cells. Dye intensity is proportional to the number of cells or amount of protein per well. The resultant “percent inhibition” value then represents the degree of growth inhibition caused by the drug.
For each experiment, an IC50 value was determined and used for comparative purposes. This value is equivalent to the concentration of drug needed to inhibit tumor cell growth by 50%. IC50 values were obtained graphically by connecting the mean values for each drug concentration tested. Each experiment included at least three wells per drug concentration. Concentration was plotted on a log scale on the X-axis.

[2] = system: SW-480 colon adenocarcinoma cells; assay: Apoptosis by DNA fragmentation (Cell Death Detection ELISA plus); format: cell-based, human; conditions: SW-480 cells, 48 hrs; for EC50: by software or estimated from effective concentration range; for DNA Fragmentation FS (100 μM): fold stimulation FS=ODmax/ODveh
Protocol: Apoptosis was also measured based on the amount of fragmented DNA contained in cell lysates. Briefly, SW-480 colon adenocarcinoma cells were plated in 96-well microtitre plates (“MTP”) at a density of 10K cells/well in 180 μl and incubated for 24 hrs. Cells were then treated with 20 μl aliquots of appropriately diluted compound, and allowed to incubate for an additional 48 hrs.
After the incubation, samples were prepared according to the following steps. The MTP was centrifuged (15 min., 1000 rpm) and the supernatant was carefully removed by fast inversion of the MTP. The cell pellents in each well were then resuspended in ^200 μl lysis buffer and incubated for 45 min. at room temperature to lyse the cells. The lysates were then centrifuged (15 min., 1000 rpm) and 20 μl aliquots of the supernatant (=cytoplasmic fraction) were transferred into the streptavidin coated MTP for analysis. Care was taken not to shake the lysed pellets in the MTP (=cell nucleii containing high molecular weight, unfragmented DNA). Samples were analyzed immediately, because storage at 4 C or −20 C reduces the ELISA-signals.
Samples were then processed according to a DNA fragmentation assay protocol, and dose-response curves were generated based on optical density readings. Quantification of DNA was done by a commercially available photometric enzyme-immunoassay manufactured by Mannheim-Boehringer under the name “Cell Death Detection ELISA^plus”. The assay is based on a quantitative sandwich-enzyme-immunoassay-principle using mouse monoclonal antibodies directed against DNA and histones, respectively. This allows the specific determination of mono and oligonucleosomes in the cytoplasmatic fraction of cell lysates. In brief, the assay procedure is as follows. The sample (cell-lysate, serum, culture-supernatant etc.) is placed into a streptavidin-coated MTP. Subsequently, a mixture of anti-histone-biotin and anti-DNA-POD are added and incubated for 2 hours. During the incubation period, the anti-histone antibody binds to the histone-component of the nucleosomes and simultaneously fixes the immunocomplex to the streptavidin-coated MTP via its biotinylation. Additionally, the anti-DNA-POD antibody reacts with the DNA component of the nucleosomes. After removal of unbound antibodies by a washing step, the amount of nucleosomes is quantified by the POD retained in the immunocomplex. POD is determined photometrically with ABTS® (2,2′-Azino-di[3-ethylbenzthiazolin-sulfonat])* as substrate.
Fold stimulation (FS=ODmax/ODveh), an indicator of apoptotic response, was determined for each compound tested. EC50 values were determined either specifically by data analysis software, or by estimates based on the effective concentration range of each compound (ECR=min. effective dose-min. dose to peak effect). These FS and EC50 values for the tested compounds are listed above in Table 6.

COX I = target: T1, COX I (Ovis aries, UniProt P05979); assay: Cyclooxygenase (COX) inhibition, purified COX; format: biochemical; conditions: 100 μM test compound; purified COX from ram seminal vesicles, arachidonic acid 100 μM
T1 construct: The COX was purified form ram seminal vesicles; from tissue; host or cells: ram seminal vesicles
T1 sequence (P05979 25-600): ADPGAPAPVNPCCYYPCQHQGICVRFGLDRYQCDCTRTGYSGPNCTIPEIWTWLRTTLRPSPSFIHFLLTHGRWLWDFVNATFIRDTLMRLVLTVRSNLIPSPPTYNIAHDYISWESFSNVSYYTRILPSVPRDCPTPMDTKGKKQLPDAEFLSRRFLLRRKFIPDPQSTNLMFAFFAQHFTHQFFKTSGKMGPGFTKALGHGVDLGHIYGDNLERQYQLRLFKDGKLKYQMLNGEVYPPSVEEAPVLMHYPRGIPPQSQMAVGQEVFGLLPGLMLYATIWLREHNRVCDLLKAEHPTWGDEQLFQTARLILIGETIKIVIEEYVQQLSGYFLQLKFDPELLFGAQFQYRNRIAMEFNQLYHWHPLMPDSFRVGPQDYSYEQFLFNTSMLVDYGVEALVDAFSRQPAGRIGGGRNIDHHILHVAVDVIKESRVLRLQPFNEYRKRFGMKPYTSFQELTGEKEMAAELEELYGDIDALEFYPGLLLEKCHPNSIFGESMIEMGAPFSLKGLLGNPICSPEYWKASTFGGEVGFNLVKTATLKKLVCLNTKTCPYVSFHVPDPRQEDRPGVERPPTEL
Protocol: Compounds of this invention, as well as a positive control, sulindac sulfide were to determine whether they inhibited the production of cyclooxygenase (see Table 5 below).
COX catalyzes the formation of prostaglandins and thromboxane by the oxidative metabolism of arachidonic acid. The compounds of this invention were evaluated for inhibitory effects on purified COX. The COX was purified form ram seminal vesicles, as described by Boopathy, R. and Balasubramanian, J. 239:371-377, 1988. COX activity was assayed as described by Evans, A. T., et al., “Actions of cannabis constituents on enzymes of arachidonate metabolism anti-flammatory potential,” Biochem. Pharmacol., 36:2035-2037, 1987. Briefly, purified COX was incubated with arachidonic acid (100 μM) for 2.0 min at 37° C. in the presence or absence of test compounds. The assay was terminated buy the addition of TCA, and COX activity was determined by absorbance at 530 nm.

[3] = system: HT-29 human colon carcinoma cells; assay: Apoptosis by morphology (acridine orange/ethidium bromide, condensed chromatin); format: cell-based; conditions: HT-29 cells
Protocol: Apoptosis was measured using an assay of cell death based on morphological characteristics of apoptotic cells (i.e., condensed chromatin). Drug preparation and cell culture conditions were the same as for the SRB assay described above, except that HT-29 human colon carcinoma cells were employed/Confluent cultures were established in 12.5 cm^2 flasks by plating 0.5×10^6 cells/flask. The cultures were assayed for apoptosis by fluorescent microscopy following labeling with acridine orange and ethidium bromide. Floating and attached cells were collected by trypsinization and washed three times in PBS. One ml aliquots were centrifuged (3 g). The pellet was resuspended in 25 μl media and 1 μl of a dye mixture containing 100 μg/ml acridine orange and 100 μg/ml ethidium bromide prepared in PBS and mixed gently. Ten μl of mixture was placed on a microscope slide and covered with a 22 mm^2 coverslip and examined under 40×dry objectives using epillumination and filter combination.
An observer blinded to the identity of the treatments scored at least 100 cells per sample. Apoptotic cells were identified by nuclear condensation of chromatin stained by the acridine orange or ethidium bromide.

SMILES	IC50 [1] [nM]	COX I % Inhibition (100 μM) (COX I) [%]	EC50 [2] [nM]	DNA Fragmentation FS (100 μM) [2]	Morphology % Apoptotic Cells (1 μM) [3] [%]
COc1cc(/C=C2/C(C)=C(CC(=O)NCc3ccccc3)c3cc(F)ccc32)cc(OC)c1OC [Example 1, (Z)-5-fluoro-2-methyl-1-(3,4,5-trimethoxybenzylidene)-3-(N-Benzyl)-indenylacetamide]	40	<25	50	4.6	73
COc1ccccc1CNC(=O)CC1=C(C)/C(=C/c2cc(OC)c(OC)c(OC)c2)c2ccc(F)cc21 [Example 15, (Z)-5-fluoro-2-methyl-1-(3,4,5-trimethoxybenzylidene)-3-(N-2-methoxybenzyl)-indenylacetamide]	390	<25	300	2.1	72
COc1ccc(CNC(=O)CC2=C(C)/C(=C/c3cc(OC)c(OC)c(OC)c3)c3ccc(F)cc32)c(OC)c1 [Example 19, (Z)-5-fluoro-2-methyl-1-(3,4,5-trimethoxybenzylidene)-3-(N-2,4-dimethoxybenzyl)-indenylacetamide]	4500	33.3	7000	2	<20
COc1cc(/C=C2/C(C)=C(CC(=O)Nc3ccccc3)c3cc(F)ccc32)cc(OC)c1OC [Example 22, (Z)-5-fluoro-2-methyl-1-(3,4,5-trimethoxybenzylidene)-3-(N-phenyl)-indenylacetamide]	4500	<25	5000	2.3	37
COc1cc(OC)c(/C=C2/C(C)=C(CC(=O)NCc3ccccc3)c3cc(F)ccc32)c(OC)c1 [Example 55, (Z)-5-fluoro-2-methyl-1-(2,4,6-trimethoxybenzylidene)-3-(N-benzyl)-indenylacetamide]	500	<25	–	–	–

Further lines, with some results ahead:

IC50 [1] [nM]	COX I % Inhibition (100 μM) (COX I) [%]	SMILES	EC50 [2] [nM]	DNA Fragmentation FS (100 μM) [2]	Morphology % Apoptotic Cells (1 μM) [3] [%]
360	<25	COc1cc(/C=C2/C(C)=C(CC(=O)NCc3ccccc3Cl)c3cc(F)ccc32)cc(OC)c1OC [Example 4, (Z)-5-fluoro-2-methyl-1-(3,4,5-trimethoxybenzylidene)-3-(N-2-chlorobenzyl)-indenylacetamide]	250	2.4	68
120	<25	COc1cc(/C=C2/C(C)=C(CC(=O)NCc3cc(F)ccc3F)c3cc(F)ccc32)cc(OC)c1OC [Example 8, (Z)-5-fluoro-2-methyl-1-(3,4,5-trimethoxybenzylidene)-3-(N-2,5-difluorobenzyl)-indenylacetamide]	210	<2	48
220	<25	C#CCNC(=O)CC1=C(C)/C(=C/c2cc(OC)c(OC)c(OC)c2)c2ccc(F)cc21 [Example 27, (Z)-5-fluoro-2-methyl-1-(3,4,5-trimethoxybenzylidene)-3-(N-propargyl)-indenylacetamide]	700	4	71
370	<25	C=CCNC(=O)CC1=C(C)/C(=C/c2cc(OC)c(OC)c(OC)c2)c2ccc(F)cc21 [Example 28, (Z)-5-fluoro-2-methyl-1-(3,4,5-trimethoxybenzylidene)-3-(N-allyl)-indenylacetamide]	230	2.3	35
